Reference: PubChem BioAssay AID2060510 (Molecular Pharmacology Branch, DTP, NCI, 2025)

Tested on: 439559-082-T-J2-PDC spheroids viability
Test: Anticancer human tumor 439559-082-T-J2-PDC patient-derived colon adenocarcinoma cell line growth inhibition [GQUAD]
Settings: for IC50: curve of first compound; for viability, T/C: stronger effect = lower value
Summary of the method: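 Tumor cells were grown as complex spheroids with HUVEC endothelial cells and mesenchymal stem cells as stroma. G-quadruplex stabilizers were combined with targeted agents over half-log dilutions from near the clinical Cmax, or from 10 microM.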

[1] = second compound 0.0316 µM, first compound 0.0316 µM
[2] = second compound 0.0316 µM, first compound 0.1 µM
[3] = second compound 0.0316 µM, first compound 0.316 µM
[4] = second compound 0.0316 µM, first compound 1 µM
[5] = second compound 0.0316 µM, first compound 3.16 µM
[6] = second compound 0.0316 µM, first compound 10 µM
[7] = second compound 0.1 µM, first compound 0.0316 µM
[8] = second compound 0.1 µM, first compound 0.1 µM
[9] = second compound 0.1 µM, first compound 0.316 µM
[10] = second compound 0.1 µM, first compound 1 µM
[11] = second compound 0.1 µM, first compound 3.16 µM
[12] = second compound 0.1 µM, first compound 10 µM
[13] = second compound 0.316 µM, first compound 0.0316 µM
[14] = second compound 0.316 µM, first compound 0.1 µM
[15] = second compound 0.316 µM, first compound 0.316 µM
[16] = second compound 0.316 µM, first compound 1 µM
[17] = second compound 0.316 µM, first compound 3.16 µM
[18] = second compound 0.316 µM, first compound 10 µM
[19] = second compound 1 µM, first compound 0.0316 µM
[20] = second compound 1 µM, first compound 0.1 µM
[21] = second compound 1 µM, first compound 0.316 µM
[22] = second compound 1 µM, first compound 1 µM
[23] = second compound 1 µM, first compound 3.16 µM
[24] = second compound 1 µM, first compound 10 µM
[25] = second compound 3.16 µM, first compound 0.0316 µM
[26] = second compound 3.16 µM, first compound 0.1 µM
[27] = second compound 3.16 µM, first compound 0.316 µM
[28] = second compound 3.16 µM, first compound 1 µM
[29] = second compound 3.16 µM, first compound 3.16 µM
[30] = second compound 3.16 µM, first compound 10 µM
[31] = second compound 10 µM, first compound 0.0316 µM
[32] = second compound 10 µM, first compound 0.1 µM
[33] = second compound 10 µM, first compound 0.316 µM
[34] = second compound 10 µM, first compound 1 µM
[35] = second compound 10 µM, first compound 3.16 µM
[36] = second compound 10 µM, first compound 10 µM
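Also: spheroids exposed to the agents for 7 days before readout.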
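For viability, T/C in this document: percent of luminescence signal in DMSO vehicle wells taken as 100% viability.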

SMILES: COc1ccc([C@@H](O)c2cc(-c3ncnc4cc(N5CCOCC5)ccc34)c(F)cc2Cl)nn1 + Cc1cnc(CNC(=O)c2c(=O)c3ccc(N4CCCN(C)CC4)nc3n3c2sc2ccccc23)cn1
- IC50 (second compound 0.0316 µM): > 10 µM
- IC50 (second compound 0.1 µM): > 10 µM
- IC50 (second compound 0.316 µM): > 10 µM
- IC50 (second compound 1 µM): 6.35 µM
- IC50 (second compound 3.16 µM): 4.19 µM
- IC50 (second compound 10 µM): 9.8 µM
- viability, T/C [1]: 99.2%
- viability, T/C [2]: 95.8%
- viability, T/C [3]: 93.6%
- viability, T/C [4]: 89.9%
- viability, T/C [5]: 75.8%
- viability, T/C [6]: 59.8%
- viability, T/C [7]: 91.4%
- viability, T/C [8]: 84%
- viability, T/C [9]: 87.3%
- viability, T/C [10]: 71.2%
- viability, T/C [11]: 70.4%
- viability, T/C [12]: 59%
- viability, T/C [13]: 89.4%
- viability, T/C [14]: 79.1%
- viability, T/C [15]: 75.4%
- viability, T/C [16]: 68.9%
- viability, T/C [17]: 66.6%
- viability, T/C [18]: 50.3%
- viability, T/C [19]: 80.1%
- viability, T/C [20]: 66.6%
- viability, T/C [21]: 74.4%
- viability, T/C [22]: 64.8%
- viability, T/C [23]: 63.1%
- viability, T/C [24]: 42.7%
- viability, T/C [25]: 72%
- viability, T/C [26]: 62.7%
- viability, T/C [27]: 61.8%
- viability, T/C [28]: 59.3%
- viability, T/C [29]: 53.5%
- viability, T/C [30]: 43.2%
- viability, T/C [31]: 56.9%
- viability, T/C [32]: 65.4%
- viability, T/C [33]: 66.3%
- viability, T/C [34]: 52.3%
- viability, T/C [35]: 62.1%
- viability, T/C [36]: 41%

SMILES: Cc1cccc(N(C)C(=O)C2C(O)CCN2c2nc(C)cc(C(F)(F)F)c2C#N)c1 (stereo not drawn) + CN(C)c1ccc(Nc2c3ccc(NC(=O)CCN4CCCC4)cc3nc3cc(NC(=O)CCN4CCCC4)ccc23)cc1
- IC50 (second compound 0.0316 µM): > 10 µM
- IC50 (second compound 0.1 µM): > 10 µM
- IC50 (second compound 0.316 µM): > 10 µM
- IC50 (second compound 1 µM): > 10 µM
- IC50 (second compound 3.16 µM): > 10 µM
- IC50 (second compound 10 µM): > 10 µM
- viability, T/C [1]: 102%
- viability, T/C [2]: 87.8%
- viability, T/C [3]: 97.3%
- viability, T/C [4]: 89.8%
- viability, T/C [5]: 94.5%
- viability, T/C [6]: 99.5%
- viability, T/C [7]: 109%
- viability, T/C [8]: 100%
- viability, T/C [9]: 94.6%
- viability, T/C [10]: 92.1%
- viability, T/C [11]: 95.5%
- viability, T/C [12]: 109%
- viability, T/C [13]: 84.5%
- viability, T/C [14]: 98.7%
- viability, T/C [15]: 101%
- viability, T/C [16]: 96.7%
- viability, T/C [17]: 95.2%
- viability, T/C [18]: 94.3%
- viability, T/C [19]: 96.4%
- viability, T/C [20]: 102%
- viability, T/C [21]: 97.5%
- viability, T/C [22]: 99.3%
- viability, T/C [23]: 96.6%
- viability, T/C [24]: 93.9%
- viability, T/C [25]: 112%
- viability, T/C [26]: 93.5%
- viability, T/C [27]: 101%
- viability, T/C [28]: 89.7%
- viability, T/C [29]: 107%
- viability, T/C [30]: 92.1%
- viability, T/C [31]: 93.6%
- viability, T/C [32]: 87.1%
- viability, T/C [33]: 100%
- viability, T/C [34]: 102%
- viability, T/C [35]: 94%
- viability, T/C [36]: 91.8%

SMILES: Nc1ccn(C2OC(CO)C(O)C2(F)F)c(=O)n1 (stereo not drawn) + Cc1cnc(CNC(=O)c2c(=O)c3ccc(N4CCCN(C)CC4)nc3n3c2sc2ccccc23)cn1
- IC50 (second compound 0.0316 µM): 0.234 µM
- IC50 (second compound 0.1 µM): 0.213 µM
- IC50 (second compound 0.316 µM): 0.231 µM
- IC50 (second compound 1 µM): 0.174 µM
- IC50 (second compound 3.16 µM): 0.171 µM
- IC50 (second compound 10 µM): 0.153 µM
- viability, T/C [1]: 87.8%
- viability, T/C [2]: 65.9%
- viability, T/C [3]: 41.4%
- viability, T/C [4]: 35.3%
- viability, T/C [5]: 27.3%
- viability, T/C [6]: 20.8%
- viability, T/C [7]: 81.4%
- viability, T/C [8]: 62.3%
- viability, T/C [9]: 43.4%
- viability, T/C [10]: 29.8%
- viability, T/C [11]: 27.8%
- viability, T/C [12]: 18.4%
- viability, T/C [13]: 84.2%
- viability, T/C [14]: 65.4%
- viability, T/C [15]: 42.9%
- viability, T/C [16]: 31.9%
- viability, T/C [17]: 25.4%
- viability, T/C [18]: 19.2%
- viability, T/C [19]: 74.3%
- viability, T/C [20]: 61.7%
- viability, T/C [21]: 37.4%
- viability, T/C [22]: 28.8%
- viability, T/C [23]: 26%
- viability, T/C [24]: 27.3%
- viability, T/C [25]: 66.9%
- viability, T/C [26]: 56.1%
- viability, T/C [27]: 43.5%
- viability, T/C [28]: 28.3%
- viability, T/C [29]: 25.7%
- viability, T/C [30]: 19.6%
- viability, T/C [31]: 67.2%
- viability, T/C [32]: 56.3%
- viability, T/C [33]: 39.3%
- viability, T/C [34]: 29.8%
- viability, T/C [35]: 24.6%
- viability, T/C [36]: 22.6%

SMILES: CC(=O)O[C@H]1C(=O)[C@@]2(C)[C@H]([C@H](OC(=O)c3ccccc3)[C@]3(O)C[C@H](OC(=O)[C@H](O)[C@@H](NC(=O)c4ccccc4)c4ccccc4)C(C)=C1C3(C)C)[C@]1(OC(C)=O)CO[C@@H]1C[C@@H]2O + Cc1cnc(CNC(=O)c2c(=O)c3ccc(N4CCCN(C)CC4)nc3n3c2sc2ccccc23)cn1
- IC50 (second compound 0.0316 µM): 2.82 µM
- IC50 (second compound 0.1 µM): 3.41 µM
- IC50 (second compound 0.316 µM): 3.38 µM
- IC50 (second compound 1 µM): 3.3 µM
- IC50 (second compound 3.16 µM): 5.1 µM
- IC50 (second compound 10 µM): 4.09 µM
- viability, T/C [1]: 89.9%
- viability, T/C [2]: 89.1%
- viability, T/C [3]: 81.3%
- viability, T/C [4]: 74.2%
- viability, T/C [5]: 46.1%
- viability, T/C [6]: 39.6%
- viability, T/C [7]: 97.5%
- viability, T/C [8]: 88%
- viability, T/C [9]: 70.7%
- viability, T/C [10]: 70%
- viability, T/C [11]: 46%
- viability, T/C [12]: 40.5%
- viability, T/C [13]: 90.3%
- viability, T/C [14]: 81.2%
- viability, T/C [15]: 78.2%
- viability, T/C [16]: 65.8%
- viability, T/C [17]: 49.3%
- viability, T/C [18]: 39.2%
- viability, T/C [19]: 74.7%
- viability, T/C [20]: 72.8%
- viability, T/C [21]: 76.6%
- viability, T/C [22]: 61.8%
- viability, T/C [23]: 51.8%
- viability, T/C [24]: 42.9%
- viability, T/C [25]: 62.2%
- viability, T/C [26]: 73.1%
- viability, T/C [27]: 72.5%
- viability, T/C [28]: 58.9%
- viability, T/C [29]: 54.7%
- viability, T/C [30]: 42.4%
- viability, T/C [31]: 64.8%
- viability, T/C [32]: 57.1%
- viability, T/C [33]: 61.1%
- viability, T/C [34]: 56%
- viability, T/C [35]: 55.3%
- viability, T/C [36]: 36.6%
